Structures are written as SMILES. pIC50: −log10 of the molar value.

For test [1], the target named is T1, SHIP1 (Src homology 2 domain-containing inositol-5-phosphatase 1) (Homo sapiens, UniProt Q92835).
T1 construct: gene INPP5D; Recombinant His-tagged human SHIP1 phosphatase domain
T1 sequence (Q92835 399-715 limits assumed): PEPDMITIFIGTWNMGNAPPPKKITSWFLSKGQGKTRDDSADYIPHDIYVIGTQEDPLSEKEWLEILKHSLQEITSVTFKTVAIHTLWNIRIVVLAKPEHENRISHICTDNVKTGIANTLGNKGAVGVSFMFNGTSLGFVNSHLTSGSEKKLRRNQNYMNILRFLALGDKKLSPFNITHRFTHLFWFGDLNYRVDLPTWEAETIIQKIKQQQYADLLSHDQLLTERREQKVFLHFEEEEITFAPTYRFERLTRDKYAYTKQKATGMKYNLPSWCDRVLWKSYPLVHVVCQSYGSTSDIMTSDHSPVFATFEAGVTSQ
In words: malachite green phosphate assay with PI([…])P3 diC8 on recombinant phosphatase domain. In kind it is biochemical.

For test [2], the target named is T2, SHIP2 (Src homology 2 domain-containing inositol-5-phosphatase 2) (Homo sapiens, UniProt O15357).
T2 construct: gene INPPL1; Recombinant His-tagged human SHIP2 phosphatase domain
T2 sequence (O15357 419-732 limits assumed): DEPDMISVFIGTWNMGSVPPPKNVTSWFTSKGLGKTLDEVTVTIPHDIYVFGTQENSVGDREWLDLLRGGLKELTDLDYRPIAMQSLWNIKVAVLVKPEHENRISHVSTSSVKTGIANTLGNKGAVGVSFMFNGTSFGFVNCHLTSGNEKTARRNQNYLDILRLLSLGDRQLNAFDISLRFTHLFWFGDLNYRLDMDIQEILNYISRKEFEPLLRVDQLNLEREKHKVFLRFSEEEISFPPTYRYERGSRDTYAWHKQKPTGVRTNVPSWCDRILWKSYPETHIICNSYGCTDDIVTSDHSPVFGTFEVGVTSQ
The test is described as above. In kind it is biochemical.

Turning to `O=c1c2ccccc2[se]n1-c1ccccc1` [ebselen], the figures for the pIC50 in test [1] and in test [2] were 5.74 and 6.32, respectively.
